Measurements: patent publication US5693830A, “Process for preparing the spiropyrone compounds” (Tokuyama Corporation, priority 1994, dated 1997)

Test: Photochromic properties of spiropyran compounds in methyl polymethacrylate film
Type: physicochemical
Conditions: for ε (60 sec.) -ε (0 sec.): absorbancy at max. absorption wavelength, irradiated 60 seconds minus not irradiated; for ε (60 sec.) -ε (0 sec.) / Developed color tone: 25° C.; for λ MAX (max. absorption wavelength): color-developing film, spectrophotometer 220A; for Developed color tone: film 1.0×10^-4 mol/g, 0.1 mm thick, mercury lamp, 10 cm, 60 seconds; for t1/2 (half-value period): time until absorbancy decreases to one-half {ε(60 sec)-ε(0 sec)} after irradiation for 60 seconds
Protocol: The concentration of the above compound contained in the film was adjusted to be 1.0×10^-4 mol/g and the thickness was adjusted to be 0.1 mm. The photochromic film was exposed to the light of a mercury lamp SHL-100 produced by Toshiba Co. at a temperature of 25° C.+1° C. from a distance of 10 cm for 60 seconds so as to develop a color, in order to measure its photochromic properties. The photochromic properties were expressed as described below.
Max. absorption wavelength (λmax)
λmax of the color-developing film was found by using a spectrophotometer 220A manufactured by Hitachi, Ltd.
Absorbancy of the film at a maximum absorption wavelength after irradiated with light for 60 seconds under the above-mentioned conditions.
Absorbancy of the film that is not irradiated with light at a maximum absorption wave of when it is irradiated with light.
Time needed until the absorbancy of the film decreases to one-half {ε(60 sec)-ε(0 sec)} after irradiated with light for 60 seconds.

Compound | ε (60 sec.) -ε (0 sec.) | λ MAX (max. absorption wavelength) | Developed color tone | t1/2 (half-value period)
3',4'-Dimethylspiro(2-bicyclo[3,3,1]nonene-9,2'-(2H)fluoro(2,3-b)pyran) [compound 38] | 0.6 | 430 nm | yellow | 10 s
ClC12CC=CC(CCC1)C21C=C(Cc2ccccc2)c2c(cnc3ccccc23)O1 (stereo not shown) [compound 28, 5-Chloro-4'-benzylspiro(2-bicyclo(3,3,1)nonene-9,2'-(2H)quino(3,4-b)pyran)] | 0.9 | 402 nm | yellow | 16 s
CCCCC1=CC2(Oc3c(C#N)cccc31)C1C=CCC2CCC1 (stereo not shown) [compound 29, 8'-Cyano-4'-n-butylspiro(2-bicyclo(3,3,1)nonene-9,2'-(2H)chromene)] | 0.5 | 494 nm | orange | 11 s
CC1(C)CCC2(C)CC=CC1C21C=C(c2ccccc2)c2cccnc2O1 (stereo not shown) [compound 30] | 0.6 | 480 nm | orange | 26 s
CCCC12CC=CC(CCC1)C21C=C(CC)c2ccc3c(-c4ccccc4)cccc3c2O1 (stereo not shown) [compound 31, 7'-Phenyl-4'-ethyl-5-n-propylspiro(2-bicyclo[3,3,1]nonene-9,2'-(2H)benzo(h)chromene)] | 0.7 | 460 nm | yellow | 90 s
CCCCC1=CC2(Oc3c1ccc1ccccc31)C1C=CCC2CCC1 (stereo not shown) [compound 32, 4'-n-Butylspiro(2-bicyclo[3,3,1]nonene-9,2'-(2H)benzo(h)chromene)] | 0.8 | 445 nm | yellow | 110 s
CCCC1=Cc2c(ccc3ccccc23)OC12C1C=CCC2CCC1 (stereo not shown) [compound 33, 3'-n-Propylspiro(2-bicyclo[3,3,1]nonene-9,2'-(2H)benzo(f)chromene)] | 0.6 | 410 nm | yellow | 18 s
C1=CC2CCCC(C1)C21Oc2ccc3ccccc3c2C=C1CCc1ccccc1 (stereo not shown) [compound 34, 3'-Benzylmethylspiro(2-bicyclo[3,3,1]nonene-9,2'-(2H)benzo(f)chromene)] | 0.7 | 406 nm | yellow | 26 s
CC(C)C1=Cc2c(ccc3ccccc23)OC12C1C=CCC2CCC1 (stereo not shown) [compound 35, 3'-i-Propylspiro(2-bicyclo[3,3,1]nonene-9,2'-(2H)benzo(f)chromene)] | 0.6 | 410 nm | yellow | 18 s
COc1ccc(C2=Cc3c(ccc4ccccc34)OC23C2C=CCC3CCC2)cc1 (stereo not shown) [compound 36, 3'-p-methoxyphenylspiro(2-bicyclo[3,3,1]nonene-9,2'-(2H)benzo(f)chromene)] | 0.9 | 420 nm | yellow | 25 s
CCC1=Cc2c(cnc3ccccc23)OC12C1C=CCC2CCC1 (stereo not shown) [compound 37, 3'-Ethylspiro(2-bicyclo[3,3,1]nonene-9,2'-(2H)quino(3,4-b)pyran)] | 0.5 | 415 nm | yellow | 22 s
CCC1=C(Cc2ccccc2)C2(Oc3scc(Br)c31)C1C=CCC2CCC1 (stereo not shown) [compound 39, 4'-Ethyl-3'-benzyl-5'-bromospiro(2-bicyclo[3,3,1]nonene-9,2'-(2H)thieno(2,3-b)pyran)] | 0.6 | 465 nm | orange | 12 s
CCCC1=C(Cc2ccccc2)c2c(ccc3ccccc23)OC12C1C=CCC2CCC1 (stereo not shown) [compound 40, 3'-n-Propyl-4'-benzylspiro(2-bicyclo[3,3,1]nonene-9,2'-(2H)benzo(f)chromene)] | 0.8 | 420 nm | yellow | 14 s
C1=CC2CCCC(C1)C21Oc2ccc3ccccc3c2C(c2ccccc2)=C1CCc1ccccc1 (stereo not shown) [compound 41, 3'-Benzylmethyl-4'-phenylspiro(2-bicyclo[3,3,1]nonene-9,2'-(2H)benzo(f)chromene)] | 0.7 | 440 nm | yellow | 17 s
CCC1=C(CC)C2(Oc3c1ccc1ccccc31)C1C=CCC2CCC1 (stereo not shown) [compound 42, 3',4'-Diethylspiro(2-bicyclo[3,3,1]nonene-9,2'-(2H)benzo(h)chromene)] | 1.0 | 450 nm | yellow | 28 s
Spiro(2-bicyclo(3,3,1)nonene-9,2'-(2H)methylpyrrolo(2,3-b)pyran) [compound 27] | 1.0 | 470 nm | orange | 48 s
